Measurements published in patent publication US20100267561A1, “HERBICIDAL PYRIDAZINONE DERIVATIVES” (priority 2007, published 2010).

Key:
Experiment in all cases: Test B pre-/postemergence plant response
Assay type in all cases: in vivo
[1] = test system: goosegrass (Eleusine indica); conditions: for Goosegrass plant response rating: 8 g ai/ha
In short: (§1)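 Visual scoring from 0 (no effect) to 100 (complete control) against untreated controls was done 13 to 15 days after greenhouse treatment. Chemicals were formulated in a surfactant-containing non-phytotoxic solvent and applied to soil preemergence or to 1- to 4-leaf (2-18 cm) plants postemergence.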

soybean (Glycine max) = conditions: for Soybean plant response rating: 8 g ai/ha
In short: as §1

[2] = test system: Italian ryegrass (Lolium multiflorum); conditions: for Ryegrass, Italian plant response rating: 8 g ai/ha
In short: as §1

[3] = test system: common ragweed (Ambrosia elation); conditions: for Ragweed plant response rating: 8 g ai/ha
In short: as §1

[4] = test system: cocklebur (Xanthium strumarium); conditions: for Cocklebur plant response rating: 8 g ai/ha
In short: as §1

[5] = test system: wheat (Triticum aestivum); conditions: for Wheat plant response rating: 8 g ai/ha
In short: as §1

kochia (Kochia scoparia) = conditions: for Kochia plant response rating: 8 g ai/ha
In short: as §1

[6] = test system: common (oilseed) sunflower (Helianthus annuus); conditions: Preemergence
In short: as §1

[7] = test system: morningglory (Ipomoea coccinea); conditions: for Morningglory plant response rating: 8 g ai/ha
In short: as §1

[8] = test system: velvetleaf (Abutilon theophrasti); conditions: for Velvetleaf plant response rating: 8 g ai/ha
In short: as §1

[9] = test system: surinam grass (Brachiaria decumbens); conditions: for Surinam Grass plant response rating: 8 g ai/ha
In short: as §1

[10] = test system: lambsquarters (Chenopodium album); conditions: for Lambsquarters plant response rating: 8 g ai/ha
In short: as §1

[11] = test system: bermudagrass (Cynodon dactylon)
In short: as §1

[12] = test system: johnsongrass (Sorghum halepense); conditions: for Johnsongrass plant response rating: 8 g ai/ha
In short: as §1

[13] = Postemergence, 31 g ai/ha, scale 0 to 100, 0 no effect, 100 complete control
[14] = Postemergence, 62 g ai/ha, scale 0 to 100
[15] = Postemergence, 125 g ai/ha, scale 0 to 100
[16] = Postemergence, 250 g ai/ha, scale 0 to 100
[17] = Preemergence, 31 g ai/ha, 0 to 100 scale, 0 no effect, 100 complete control
[18] = Preemergence, 62 g ai/ha, scale 0 to 100
[19] = Preemergence, 125 g ai/ha, scale 0 to 100
[20] = Preemergence, 250 g ai/ha, scale 0 to 100
[21] = Postemergence, 16 g ai/ha, scale 0 to 100
[22] = Postemergence, 31 g ai/ha, scale 0 to 100
[23] = Postemergence, 62 g ai/ha, scale 0 to 100, 0 no effect, 100 complete control
[24] = Preemergence, 16 g ai/ha, scale 0 to 100 (0 no effect, 100 complete control)
[25] = Preemergence, 31 g ai/ha, scale 0 to 100 (0 no effect, 100 complete control)
[26] = Preemergence, 62 g ai/ha, 0 to 100 scale, 0 no effect, 100 complete control

4-[3-(4-chlorophenyl)-5-methyl-1H-pyrazol-3-yl]-5-hydroxy-2-methyl-3(2H)-pyridazinone [Compound 3]
60: Plant response rating, Soybean (soybean (Glycine max); [16]) | Plant response rating, Kochia (kochia (Kochia scoparia); [15])
98: Plant response rating, Ryegrass, Italian [2, 17] | Plant response rating, Wheat [5, 20]
90: Plant response rating, Wheat [5, 14]
20: Plant response rating, Velvetleaf [8, 20] | Plant response rating, Lambsquarters [10, 16]
30: Plant response rating, Kochia (kochia (Kochia scoparia); [19]) | Plant response rating, Kochia (kochia (Kochia scoparia); [20]) | Plant response rating, Sunflower ([6]; 31 g ai/ha, 0 to 100 scale, 0 no effect, 100 complete control) | Plant response rating, Bermudagrass [11, 17]
45: Plant response rating, Wheat [5, 17]
75: Plant response rating, Wheat [5, 18]
80: Plant response rating, Goosegrass [1, 17] | Plant response rating, Wheat [5, 13] | Plant response rating, Johnsongrass [12, 14] | Plant response rating, Johnsongrass [12, 17]
70: Plant response rating, Kochia (kochia (Kochia scoparia); [16])
95: Plant response rating, Goosegrass [1, 13] | Plant response rating, Goosegrass [1, 14] | Plant response rating, Ryegrass, Italian [2, 13] | Plant response rating, Wheat [5, 19] | Plant response rating, Johnsongrass [12, 18]
100: Plant response rating, Goosegrass [1, 15] | Plant response rating, Goosegrass [1, 16] | Plant response rating, Goosegrass [1, 20] | Plant response rating, Ryegrass, Italian [2, 14] | Plant response rating, Ryegrass, Italian [2, 15] | Plant response rating, Ryegrass, Italian [2, 16] | Plant response rating, Ryegrass, Italian [2, 18] | Plant response rating, Ryegrass, Italian [2, 19] | Plant response rating, Ryegrass, Italian [2, 20] | Plant response rating, Wheat [5, 15] | Plant response rating, Wheat [5, 16] | Plant response rating, Surinam Grass [9, 13] | Plant response rating, Surinam Grass [9, 14] | Plant response rating, Surinam Grass [9, 15] | Plant response rating, Surinam Grass [9, 16] | Plant response rating, Surinam Grass [9, 17] | Plant response rating, Surinam Grass [9, 18] | Plant response rating, Surinam Grass [9, 19] | Plant response rating, Surinam Grass [9, 20] | Bermudagrass plant response rating ([11]; 250 g ai/ha, preemergence, 0-100 scale) | Plant response rating, Bermudagrass [11, 13] | Plant response rating, Bermudagrass [11, 14] | Plant response rating, Bermudagrass [11, 15] | Plant response rating, Bermudagrass [11, 16] | Plant response rating, Bermudagrass [11, 18] | Plant response rating, Bermudagrass [11, 19] | Plant response rating, Johnsongrass [12, 19] | Plant response rating, Johnsongrass [12, 20]
50: Plant response rating, Ragweed [3, 16]
85: Plant response rating, Goosegrass [1, 18] | Plant response rating, Goosegrass [1, 19]
15: Plant response rating, Lambsquarters [10, 15]
0: Plant response rating, Soybean (soybean (Glycine max); [13]) | Plant response rating, Soybean (soybean (Glycine max); [17]) | Plant response rating, Soybean (soybean (Glycine max); [18]) | Plant response rating, Soybean (soybean (Glycine max); [19]) | Plant response rating, Soybean (soybean (Glycine max); [20]) | Plant response rating, Ragweed [3, 14] | Plant response rating, Ragweed [3, 15] | Plant response rating, Ragweed [3, 17] | Plant response rating, Ragweed [3, 19] | Plant response rating, Ragweed [3, 20] | Plant response rating, Cocklebur [4, 13] | Plant response rating, Cocklebur [4, 14] | Plant response rating, Cocklebur [4, 15] | Plant response rating, Cocklebur [4, 16] | Plant response rating, Cocklebur [4, 17] | Plant response rating, Cocklebur [4, 18] | Plant response rating, Cocklebur [4, 20] | Plant response rating, Kochia (kochia (Kochia scoparia); [13]) | Plant response rating, Kochia (kochia (Kochia scoparia); [14]) | Plant response rating, Kochia (kochia (Kochia scoparia); [17]) | Plant response rating, Morningglory [7, 13] | Plant response rating, Morningglory [7, 14] | Plant response rating, Morningglory [7, 15] | Plant response rating, Morningglory [7, 16] | Plant response rating, Morningglory [7, 17] | Plant response rating, Morningglory [7, 18] | Plant response rating, Morningglory [7, 19] | Plant response rating, Morningglory [7, 20] | Plant response rating, Velvetleaf [8, 13] | Plant response rating, Velvetleaf [8, 14] | Plant response rating, Velvetleaf [8, 15] | Plant response rating, Velvetleaf [8, 16] | Plant response rating, Velvetleaf [8, 17] | Plant response rating, Velvetleaf [8, 18] | Plant response rating, Velvetleaf [8, 19] | Plant response rating, Lambsquarters [10, 13] | Plant response rating, Lambsquarters [10, 14] | Plant response rating, Johnsongrass [12, 13]
40: Plant response rating, Soybean (soybean (Glycine max); [14]) | Plant response rating, Soybean (soybean (Glycine max); [15]) | Plant response rating, Sunflower ([6]; 62 g ai/ha, scale 0 to 100)

Cc1cc(-c2ccc(Cl)cc2)nn1-c1c(OC(=O)c2ccccc2)cnn(C)c1=O [Compound 48]
40: Ryegrass, Italian plant response rating ([2]; postemergence, 0-100 scale) | Plant response rating, Surinam Grass [9, 24] | Johnsongrass plant response rating ([12]; Preemergence, scale 0 to 100)
95: Plant response rating, Goosegrass [1, 23] | Plant response rating, Wheat [5, 22]
15: Goosegrass plant response rating ([1]; postemergence, 0-100 scale)
50: Plant response rating, Wheat [5, 21]
100: Plant response rating, Ryegrass, Italian [2, 22] | Plant response rating, Ryegrass, Italian [2, 23] | Plant response rating, Ryegrass, Italian [2, 25] | Plant response rating, Ryegrass, Italian [2, 18] | Plant response rating, Surinam Grass [9, 22] | Plant response rating, Surinam Grass [9, 23] | Plant response rating, Bermudagrass [11, 22] | Plant response rating, Bermudagrass [11, 23] | Plant response rating, Johnsongrass [12, 22] | Plant response rating, Johnsongrass [12, 23]
0: Plant response rating, Goosegrass [1, 24] | Plant response rating, Goosegrass [1, 17] | Goosegrass plant response rating ([1]; Preemergence, scale 0 to 100) | Soybean plant response rating (soybean (Glycine max); postemergence, 0-100 scale) | Plant response rating, Soybean (soybean (Glycine max); [21]) | Plant response rating, Soybean (soybean (Glycine max); [22]) | Plant response rating, Soybean (soybean (Glycine max); [23]) | Plant response rating, Soybean (soybean (Glycine max); [24]) | Plant response rating, Soybean (soybean (Glycine max); [25]) | Plant response rating, Soybean (soybean (Glycine max); [18]) | Soybean plant response rating (soybean (Glycine max); Preemergence, scale 0 to 100) | Ragweed plant response rating ([3]; postemergence, 0-100 scale) | Plant response rating, Ragweed [3, 21] | Plant response rating, Ragweed [3, 22] | Plant response rating, Ragweed [3, 23] | Plant response rating, Ragweed [3, 24] | Plant response rating, Ragweed [3, 25] | Plant response rating, Ragweed [3, 18] | Ragweed plant response rating ([3]; Preemergence, scale 0 to 100) | Cocklebur plant response rating ([4]; postemergence, 0-100 scale) | Plant response rating, Cocklebur [4, 21] | Plant response rating, Cocklebur [4, 22] | Plant response rating, Cocklebur [4, 23] | Plant response rating, Cocklebur [4, 24] | Plant response rating, Cocklebur [4, 17] | Plant response rating, Cocklebur [4, 18] | Cocklebur plant response rating ([4]; Preemergence, scale 0 to 100) | Wheat plant response rating ([5]; postemergence, 0-100 scale) | Plant response rating, Wheat [5, 24] | Wheat plant response rating ([5]; Preemergence, scale 0 to 100) | Kochia plant response rating (kochia (Kochia scoparia); postemergence, 0-100 scale) | Plant response rating, Kochia (kochia (Kochia scoparia); [21]) | Plant response rating, Kochia (kochia (Kochia scoparia); [22]) | Plant response rating, Kochia (kochia (Kochia scoparia); [23]) | Plant response rating, Kochia (kochia (Kochia scoparia); [24]) | Plant response rating, Kochia (kochia (Kochia scoparia); [17]) | Plant response rating, Kochia (kochia (Kochia scoparia); [18]) | Kochia plant response rating (kochia (Kochia scoparia); Preemergence, scale 0 to 100) | Plant response rating, Sunflower ([6]; 16 g ai/ha, scale 0 to 100 (0 no effect, 100 complete control)) | Plant response rating, Sunflower ([6]; 31 g ai/ha, scale 0 to 100 (0 no effect, 100 complete control)) | Plant response rating, Sunflower ([6]; 62 g ai/ha, scale 0 to 100) | Sunflower plant response rating ([6]; 8 g ai/ha, scale 0 to 100) | Morningglory plant response rating ([7]; postemergence, 0-100 scale) | Plant response rating, Morningglory [7, 21] | Plant response rating, Morningglory [7, 22] | Plant response rating, Morningglory [7, 23] | Plant response rating, Morningglory [7, 24] | Plant response rating, Morningglory [7, 25] | Plant response rating, Morningglory [7, 18] | Morningglory plant response rating ([7]; Preemergence, scale 0 to 100) | Velvetleaf plant response rating ([8]; postemergence, 0-100 scale) | Plant response rating, Velvetleaf [8, 21] | Plant response rating, Velvetleaf [8, 22] | Plant response rating, Velvetleaf [8, 23] | Plant response rating, Velvetleaf [8, 24] | Plant response rating, Velvetleaf [8, 25] | Plant response rating, Velvetleaf [8, 26] | Velvetleaf plant response rating ([8]; Preemergence, scale 0 to 100) | Surinam Grass plant response rating ([9]; Preemergence, scale 0 to 100) | Lambsquarters plant response rating ([10]; postemergence, 0-100 scale) | Plant response rating, Lambsquarters [10, 21] | Plant response rating, Lambsquarters [10, 22] | Plant response rating, Lambsquarters [10, 23] | Plant response rating, Lambsquarters [10, 24] | Plant response rating, Lambsquarters [10, 17] | Plant response rating, Lambsquarters [10, 18] | Lambsquarters plant response rating ([10]; Preemergence, scale 0 to 100) | Bermudagrass plant response rating ([11]; Preemergence, 8 g ai/ha, scale 0 to 100 (0 no effect, 100 complete control)) | Plant response rating, Bermudagrass [11, 24] | Plant response rating, Bermudagrass [11, 17] | Plant response rating, Bermudagrass [11, 18]
85: Plant response rating, Ryegrass, Italian [2, 24] | Ryegrass, Italian plant response rating ([2]; Preemergence, scale 0 to 100)
75: Plant response rating, Goosegrass [1, 22] | Surinam Grass plant response rating ([9]; postemergence, 0-100 scale) | Plant response rating, Surinam Grass [9, 26] | Plant response rating, Johnsongrass [12, 21] | Plant response rating, Johnsongrass [12, 17]
60: Plant response rating, Wheat [5, 26] | Plant response rating, Johnsongrass [12, 24]
80: Plant response rating, Johnsongrass [12, 18]
90: Plant response rating, Ryegrass, Italian [2, 21] | Plant response rating, Surinam Grass [9, 21]
20: Plant response rating, Goosegrass [1, 18]
65: Plant response rating, Goosegrass [1, 21] | Plant response rating, Surinam Grass [9, 25] | Bermudagrass plant response rating ([11]; 8 g ai/ha, postemergence, 0-100 scale) | Johnsongrass plant response rating ([12]; postemergence, 0-100 scale)
98: Plant response rating, Wheat [5, 23] | Plant response rating, Bermudagrass [11, 21]
5: Plant response rating, Wheat [5, 25]
